How the values were obtained:
[1] = system: Normal human knee articular cartilage cells (NHAC-kn); assay: Inflammatory cytokine gene expression induction by LPA in human articular cartilage cells; assay type: cell-based; conditions: 10 μM LPA, n=4
Experimental: EDG2 is a GPCR having lysophosphatidic acid (LPA) as a ligand thereof. For LPA, four receptors, including EDG2, have been reported (EDG2, EDG4, EDG7 and GPR23). To analyze the tissue distributions of these four LPA receptors, an expression quantitation analysis by quantitative real-time PCR in various human tissues was performed. On 500 ng of total RNA of each of various human tissues (Human Total RNA Master Panel, Clontech), reverse transcription was performed using Multiscribe reverse transcriptase (Applied biosystems) and a random hexamer, whereby a cDNA was obtained. Quantitation of the LPA receptor genes was performed using QuantiTect STBR Green PCR (Qiagen) on the ABI PRISM 7700 sequence detection system (Applied biosystems) as directed in the documentation attached. The number of copies of each gene was calculated using a working curve. […]
The inflammatory cytokine expression induction reaction of LPA, which is a ligand of EDG2, in human articular cartilage cells was analyzed. […] Twelve hours after the medium replacement, the cells were stimulated with 10 μM LPA; 0, 2, 4, 8, 12 and 24 hours later, total RNA was extracted using ISOGEN (Nippon Gene), and the amounts expressed of TNFA and IL1B, which are inflammatory cytokine genes, were quantified by a method in accordance with Example 10. […]

[2] = system: rabbit synovial cell line (HIG-82); assay: Inflammatory cytokine and MMP gene expression induction by LPA in rabbit synovial cell line; assay type: cell-based
Experimental: EDG2 is a GPCR having lysophosphatidic acid (LPA) as a ligand thereof. For LPA, four receptors, including EDG2, have been reported (EDG2, EDG4, EDG7 and GPR23). To analyze the tissue distributions of these four LPA receptors, an expression quantitation analysis by quantitative real-time PCR in various human tissues was performed. On 500 ng of total RNA of each of various human tissues (Human Total RNA Master Panel, Clontech), reverse transcription was performed using Multiscribe reverse transcriptase (Applied biosystems) and a random hexamer, whereby a cDNA was obtained. Quantitation of the LPA receptor genes was performed using QuantiTect STBR Green PCR (Qiagen) on the ABI PRISM 7700 sequence detection system (Applied biosystems) as directed in the documentation attached. The number of copies of each gene was calculated using a working curve. The amount of each gene was standardized by being divided by the number of copies of the G3PDH gene. A Toyobo product was used as the primer for the G3PDH gene. […] In these organs, the amount of the EDG2 gene expressed was about 20 to 100 times as high as other LPA receptor genes; this gene is a dominant LPA receptor (FIG. 2). The EDG2 gene was also found to be expressed at moderate levels in the adrenal, cerebellum, lung, placenta, prostate, testis, thyroid, trachea, and uterus (FIG. 2). In these tissues, EDG2 was not always a dominant LPA receptor.
The inflammatory cytokine expression induction reaction of LPA in a rabbit synovial cell line was analyzed. The method used is described below. A rabbit synovial cell line (HIG-82) was purchased from ATCC. The HIG-82 was cultured using Ham's F-12 medium (Invitrogen) containing 10% fetal bovine serum (FBS) and antibiotics (100 U/ml penicillin G and 100 μg/ml streptomycin). The HIG-82 was seeded to a 24-well plate at a ratio of 1×10^5 cells/well, and cultured until they became confluent. Twelve hours before performing LPA stimulation, the medium was replaced with Ham's F-12 medium containing 0.1% fatty acid free bovine serum albumin (Sigma). In the time-related change analysis, 12 hours after the medium replacement, the cells were stimulated with 10 μM LPA; 0, 2, 4, 8, 12 and 24 hours later, total RNA was extracted using ISOGEN (Nippon Gene), and the amounts expressed of the TNFA and IL1B genes, which are inflammatory cytokine genes, and of the MMP1, MMP3 and MMP13 genes, which are MMP genes, were quantified by a method in accordance with Example 10 (n=4). In the dose dependency test, 12 hours after the medium replacement, the cells were stimulated with 0, 0.1, 1 and 10 μM LPA; 2 hours later, total RNA was extracted using ISOGEN (Nippon Gene), and the amounts expressed of the TNFA and IL1B genes, which are inflammatory cytokine genes, were quantified by the same method as with the time-related change test (n=4). As a result of the time-related change test of inflammatory cytokine genes with LPA stimulation, the amounts expressed of the TNFA and IL1B genes rose transiently, with peaks reached 2 hours later (FIGS. 9a and b). The amounts expressed of the MMP1, MMP3 and MMP13 genes, which are MMP genes, rose transiently, with peaks reached 4, 4 and 8 hours later, respectively. As a result of the dose dependency test, it was shown that LPA raised the expression of inflammatory cytokine genes dose-dependently. The amount expressed of the IL1B gene nearly reached a plateau at 1 μM, whereas the amount expressed of the TNFA gene rose dose-dependently up to 10 μM. The results above are well similar to the results for HFLS-OA shown in Example 17, showing that in HIG-82 cells as well, the expression of inflammatory cytokine genes is induced with LPA stimulation, and the expression of MMPs is induced paracrinely.

CCCCCCCC/C=C\CCCCCCCC(=O)OC[C@@H](O)COP(=O)(O)O [LPA, 1-Oleoyl-sn-Glycero-3-Phosphate]
IL1B gene expression ([1]; 0-24 hours): no expression raising reaction was observed | rise in amount expressed of the TNFA gene ([1]; transiently, 2 hours after addition): about 2 folds | rise of expression of inflammatory cytokine genes (TNFA, IL1B) ([2]; 0, 0.1, 1 and 10 μM LPA, 2 hours, n=4): dose-dependently | time of peak of IL1B gene expression ([2]; 10 μM LPA, transient rise, n=4): 2 h | time of peak of MMP1 gene expression ([2]; 10 μM LPA, transient rise, n=4): 4 h | time of peak of MMP3 gene expression ([2]; 10 μM LPA, transient rise, n=4): 4 h | time of peak of MMP13 gene expression ([2]; 10 μM LPA, transient rise, n=4): 8 h | time of peak of TNFA gene expression ([2]; 10 μM LPA, transient rise, n=4): 2 h | LPA concentration at which IL1B gene expression nearly reached a plateau ([2]; dose dependency test, 2 hours): 1 µM | LPA concentration up to which TNFA gene expression rose dose-dependently ([2]; dose dependency test, 2 hours): up to 10 μM

Source: US20100239501A1, “GENE SENSITIVE TO BONE/JOINT DISEASE AND USE THEREOF” (RIKEN, priority 2007, published 2010)
